Measurements reported in the supplement of paper PMC10307832.

Tests used:
Assay in all cases: relative viability (nuclei count vs DMSO), 5 days (fraction); higher = more cells survive
[1] = compound: CC[C@@H](C)CNCC(=O)N1CCC2=C([C@@H]1COC3=CC=CC(=C3)C)C=CS2 [RU-SKI 43] + O=C(c1cc(Cc2n[nH]c(=O)c3ccccc23)ccc1F)N1CCN(C(=O)C2CC2)CC1 [Olaparib] (partner 8 µM)
Summary of the method: (§1)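 The day after seeding in 1536-well plates, lung cancer cell lines were treated by pin tool with a single drug, or with a fixed anchor-drug dose together with five library-drug doses (not always all listed) in √10 steps. After 5 days, a combined fix-and-stain solution (final 0.05% Triton X-100, 1% formaldehyde, 1 ug/ml Hoechst) was added. Nuclei counted on 4× images gave relative viability as treated counts over vehicle counts, reported as the median of duplicate plates.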

[2] = compound: CC[C@@H](C)CNCC(=O)N1CCC2=C([C@@H]1COC3=CC=CC(=C3)C)C=CS2 [RU-SKI 43] + Cc1nc(NC(=O)N2CCC[C@H]2C(N)=O)sc1-c1ccnc(C(C)(C)C(F)(F)F)c1 [Alpelisib] (partner 2 µM)
Summary of the method: as §1

[3] = compound: CC[C@@H](C)CNCC(=O)N1CCC2=C([C@@H]1COC3=CC=CC(=C3)C)C=CS2 [RU-SKI 43] + C[C@]1(O)C[C@@H](c2nc(-c3ccc4ccc(-c5ccccc5)nc4c3)c3c(N)nccn32)C1 [Linsitinib] (partner 1 µM)
Summary of the method: as §1

[4] = compound: CC[C@@H](C)CNCC(=O)N1CCC2=C([C@@H]1COC3=CC=CC(=C3)C)C=CS2 [RU-SKI 43] + C[C@@H](Oc1cc(-c2cnn(C3CCNCC3)c2)cnc1N)c1c(Cl)ccc(F)c1Cl [Crizotinib] (partner 1 µM)
Summary of the method: as §1

Cell Line | relative viability ([1]; first compound 0.1 µM) | relative viability ([1]; first compound 0.3162 µM) | relative viability ([1]; first compound 1 µM) | relative viability ([1]; first compound 3.162 µM) | relative viability ([1]; first compound 10 µM) | relative viability ([2]; first compound 0.1 µM) | relative viability ([2]; first compound 0.3162 µM) | relative viability ([2]; first compound 1 µM) | relative viability ([2]; first compound 3.162 µM) | relative viability ([2]; first compound 10 µM) | relative viability ([3]; first compound 0.1 µM) | relative viability ([3]; first compound 0.3162 µM) | relative viability ([3]; first compound 1 µM) | relative viability ([3]; first compound 3.162 µM) | relative viability ([3]; first compound 10 µM) | relative viability ([4]; first compound 0.1 µM) | relative viability ([4]; first compound 0.3162 µM) | relative viability ([4]; first compound 1 µM) | relative viability ([4]; first compound 3.162 µM) | relative viability ([4]; first compound 10 µM)
NCI-H520 | 0.35 | 0.292 | 0.372 | 0.344 | 0.335 | 0.968 | 1.01 | 1.09 | 0.918 | 0.793 | 0.94 | 0.906 | 0.929 | 0.996 | 0.848 | 0.858 | 0.874 | 1.09 | 0.706 | 0.616
NCI-H596 | 0.719 | 0.548 | 0.654 | 0.712 | 0.709 | 0.395 | 0.481 | 0.508 | 0.6 | 0.482 | 1.14 | 1.07 | 1.08 | 1.02 | 0.96 | 0.998 | 0.904 | 0.987 | 1.06 | 1.03
NCI-H647 | 0.584 | 0.821 | 0.512 | 0.695 | 0.628 | 1.2 | 1.56 | 1.51 | 1.11 | 1.1 | 1.15 | 1.56 | 1.38 | 1.47 | 0.982 | 1.29 | 1.23 | 1.15 | 1.14 | 0.833
NCI-H650 | 0.404 | 0.517 | – | 0.38 | 0.406 | 1.14 | 0.981 | 1.12 | – | 1.07 | 0.918 | 0.696 | 1.13 | – | 0.911 | 0.76 | 0.622 | 0.694 | – | 0.619
NCI-H661 | 0.763 | 0.976 | 0.718 | 0.786 | 0.665 | 0.647 | 0.668 | 0.846 | 0.464 | 0.404 | 0.433 | 0.645 | 0.557 | 0.518 | 0.651 | 0.887 | 0.943 | 0.984 | 0.942 | 0.938
NCI-H727 | – | 0.515 | 0.694 | 0.67 | 0.624 | 0.571 | 0.477 | 0.729 | 0.249 | 0.479 | 0.31 | 0.244 | 0.335 | 0.223 | 0.242 | 0.688 | 0.975 | 0.796 | 0.872 | 0.7
NCI-H838 | 0.842 | 0.798 | 0.806 | 0.798 | 0.738 | 0.975 | 0.969 | 0.966 | 0.93 | 1.02 | 1.05 | 1.22 | 1.07 | 1 | 1 | 0.904 | 0.98 | 0.826 | 0.794 | 0.75
NCI-H1299 | 0.948 | 0.995 | 1.04 | 0.99 | 0.959 | 1.18 | 1.14 | 1.03 | 1.08 | 1.15 | 1.03 | 1.2 | 1.1 | 1.04 | 0.965 | 0.947 | 1.12 | 0.995 | 1.01 | 0.957
